Test results: DBAASP
Values after ≈ are worked out from the molar mass of the structure shown.

Assays:
Assay in all cases: ≥ marks a high value that may be exact or a test limit, other limits are often not marked, values filed in µg/mL are converted to µM
[1] = test system: Bacillus cereus
[2] = test system: Escherichia coli
[3] = test system: Staphylococcus aureus
[4] = test system: Bacillus subtilis

MIC [1] [µM]	MIC [2] [µM]	MIC [3] [µM]	MIC [4] [µM]	SMILES
3.61 (≈ 8 µg/mL)	7.23 (≈ 16 µg/mL)	1.81 (≈ 4 µg/mL)		CC(C)C[C@H](NC(=O)[C@H](CCCCN)NC(=O)[C@H](Cc1ccccc1)NC(=O)[C@@H](NC(=O)[C@H](CCCCN)NC(=O)CNC(=O)[C@H](CC(C)C)NC(=O)[C@@H](N)Cc1ccccc1)C(C)C)C(=O)N[C@@H](C)C(=O)N[C@@H](CO)C(=O)N[C@@H](CCCCN)C(=O)N[C@H](C(=O)N[C@@H](Cc1ccccc1)C(=O)N[C@@H](CCCCN)C(=O)N[C@@H](C)C(=O)N[C@H](C(=O)N[C@@H](Cc1ccccc1)C(=O)NCC(=O)N[C@@H](CCCCN)C(=O)N[C@H](C(=O)O)C(C)C)C(C)C)C(C)C [FLGKVFKLASKVFKAVFGKV]
14.3 (≈ 32 µg/mL)	7.14 (≈ 16 µg/mL)	28.6 (≈ 64 µg/mL)		CC(C)C[C@H](NC(=O)[C@H](CCCCN)NC(=O)[C@H](Cc1ccccc1)NC(=O)[C@@H](NC(=O)[C@H](CCCCN)NC(=O)CNC(=O)[C@H](CC(C)C)NC(=O)[C@@H](N)Cc1ccccc1)C(C)C)C(=O)N[C@@H](C)C(=O)N[C@@H](CO)C(=O)N[C@@H](CCCCN)C(=O)N[C@H](C(=O)N[C@@H](Cc1ccccc1)C(=O)N1CCC[C@H]1C(=O)N[C@@H](CCCCN)C(=O)N[C@H](C(=O)N[C@@H](Cc1ccccc1)C(=O)NCC(=O)N[C@@H](CCCCN)C(=O)N[C@H](C(=O)O)C(C)C)C(C)C)C(C)C [FLGKVFKLASKVFPKVFGKV]
7.57 (≈ 16 µg/mL)	> 121	3.79 (≈ 8 µg/mL)		CC(C)C[C@H](NC(=O)[C@H](CCCCN)NC(=O)[C@H](Cc1ccccc1)NC(=O)[C@@H](NC(=O)[C@@H](NC(=O)CNC(=O)[C@H](CC(C)C)NC(=O)[C@@H](N)Cc1ccccc1)C(C)C)C(C)C)C(=O)N[C@@H](C)C(=O)N[C@@H](CO)C(=O)N[C@@H](CCCCN)C(=O)N[C@H](C(=O)N[C@@H](Cc1ccccc1)C(=O)NCC(=O)N[C@@H](C)C(=O)N[C@H](C(=O)N[C@@H](Cc1ccccc1)C(=O)NCC(=O)N[C@@H](CCCCN)C(=O)N[C@H](C(=O)O)C(C)C)C(C)C)C(C)C [FLGVVFKLASKVFGAVFGKV]
14.2 (≈ 32 µg/mL)	1.77 (≈ 4 µg/mL)	28.4 (≈ 64 µg/mL)		CC(C)C[C@H](NC(=O)[C@H](CCCCN)NC(=O)[C@H](Cc1ccccc1)NC(=O)[C@@H](NC(=O)[C@H](CCCCN)NC(=O)[C@H](CCCCN)NC(=O)[C@H](CC(C)C)NC(=O)[C@@H](N)Cc1ccccc1)C(C)C)C(=O)N[C@@H](C)C(=O)N[C@@H](CO)C(=O)N[C@@H](CCCCN)C(=O)N[C@H](C(=O)N[C@@H](Cc1ccccc1)C(=O)N1CCC[C@H]1C(=O)N[C@@H](C)C(=O)N[C@H](C(=O)N[C@@H](Cc1ccccc1)C(=O)NCC(=O)N[C@@H](CCCCN)C(=O)N[C@H](C(=O)O)C(C)C)C(C)C)C(C)C [FLKKVFKLASKVFPAVFGKV]
≥ 57.1	57.1 (≈ 128 µg/mL)	> 57.1		CC(C)C[C@H](NC(=O)[C@@H](N)Cc1ccccc1)C(=O)N[C@@H](CCCCN)C(=O)N[C@H](C(=O)N[C@H](C(=O)N[C@@H](Cc1ccccc1)C(=O)N[C@@H](CCCCN)C(=O)N[C@@H](CCCCN)C(=O)N[C@@H](C)C(=O)N[C@@H](CO)C(=O)N[C@@H](CCCCN)C(=O)N[C@H](C(=O)N[C@@H](Cc1ccccc1)C(=O)N1CCC[C@H]1C(=O)N[C@@H](C)C(=O)N[C@H](C(=O)N[C@@H](Cc1ccccc1)C(=O)NCC(=O)N[C@@H](CCCCN)C(=O)N[C@H](C(=O)O)C(C)C)C(C)C)C(C)C)C(C)C)C(C)C [FLKVVFKKASKVFPAVFGKV]
7.32 (≈ 16 µg/mL)	58.6 (≈ 128 µg/mL)	7.32 (≈ 16 µg/mL)		CC(C)C[C@H](NC(=O)[C@H](CCCCN)NC(=O)[C@H](Cc1ccccc1)NC(=O)[C@@H](NC(=O)[C@@H](NC(=O)[C@H](CCCCN)NC(=O)[C@H](CC(C)C)NC(=O)[C@@H](N)Cc1ccccc1)C(C)C)C(C)C)C(=O)N[C@@H](C)C(=O)N[C@@H](CO)C(=O)N[C@@H](CCCCN)C(=O)N[C@H](C(=O)N[C@@H](Cc1ccccc1)C(=O)NCC(=O)N[C@@H](C)C(=O)N[C@H](C(=O)N[C@@H](Cc1ccccc1)C(=O)NCC(=O)N[C@@H](CCCCN)C(=O)N[C@H](C(=O)O)C(C)C)C(C)C)C(C)C [FLKVVFKLASKVFGAVFGKV]
7.19 (≈ 16 µg/mL)	14.4 (≈ 32 µg/mL)	1.8 (≈ 4 µg/mL)		CC(C)C[C@H](NC(=O)[C@H](CCCCN)NC(=O)[C@H](Cc1ccccc1)NC(=O)[C@@H](NC(=O)[C@@H](NC(=O)[C@H](CCCCN)NC(=O)[C@H](CC(C)C)NC(=O)[C@@H](N)Cc1ccccc1)C(C)C)C(C)C)C(=O)N[C@@H](C)C(=O)N[C@@H](CO)C(=O)N[C@@H](CCCCN)C(=O)N[C@H](C(=O)N[C@@H](Cc1ccccc1)C(=O)N1CCC[C@H]1C(=O)N[C@@H](C)C(=O)N[C@H](C(=O)N[C@@H](Cc1ccccc1)C(=O)NCC(=O)N[C@@H](CCCCN)C(=O)N[C@H](C(=O)O)C(C)C)C(C)C)C(C)C [FLKVVFKLASKVFPAVFGKV]
≥ 126	> 126			CC[C@H](C)[C@H](NC(=O)[C@H](C)NC(=O)CNC(=O)[C@H](Cc1ccccc1)NC(=O)[C@@H](NC(=O)[C@H](CO)NC(=O)[C@@H]1CCCN1C(=O)[C@@H](NC(=O)[C@@H](NC(=O)[C@H](CCCCN)NC(=O)[C@H](CO)NC(=O)[C@H](C)NC(=O)[C@H](CC(C)C)NC(=O)[C@H](CO)NC(=O)CNC(=O)[C@@H](NC(=O)[C@@H](N)Cc1ccccc1)C(C)C)C(C)C)C(C)C)C(C)C)C(=O)N[C@@H](CCCCN)C(=O)N[C@H](C(=O)N[C@@H](CCCCN)C(=O)O)[C@@H](C)O [FVGSLASKVVPSVFGAIKTK]
≥ 125	62.3 (≈ 128 µg/mL)			CC[C@H](C)[C@H](NC(=O)[C@H](Cc1ccccc1)NC(=O)CN)C(=O)NCC(=O)N[C@@H](CCCCN)C(=O)N[C@@H](CC(C)C)C(=O)N[C@@H](C)C(=O)N[C@@H](CO)C(=O)N[C@@H](CCCCN)C(=O)N[C@H](C(=O)N[C@H](C(=O)N1CCC[C@H]1C(=O)N[C@@H](CO)C(=O)N[C@H](C(=O)N[C@@H](Cc1ccc(O)cc1)C(=O)N[C@@H](CS)C(=O)N[C@@H](CCCCN)C(=O)N[C@H](C(=O)N[C@H](C(=O)NCC(=O)O)[C@@H](C)O)C(C)C)C(C)C)C(C)C)C(C)C [GFIGKLASKVVPSVYCKVTG]
	> 100		22.5 (≈ 34.4 µg/mL)	CC[C@H](C)[C@H](N)C(=O)N[C@@H](CC(N)=O)C(=O)N[C@@H](Cc1ccccc1)C(=O)N[C@@H](CC(C)C)C(=O)N[C@@H](CCCCN)C(=O)N[C@@H](CC(C)C)C(=O)NCC(=O)N[C@@H](CCCCN)C(=O)N[C@@H](CCCCN)C(=O)N[C@H](C(=O)N[C@@H](CC(C)C)C(=O)NCC(=O)N[C@@H](C)C(=O)N[C@@H](CC(C)C)C(N)=O)[C@@H](C)CC [INFLKLGKKILGAL]
	75 (≈ 135 µg/mL)		≥ 70	CC[C@H](C)[C@H](N)C(=O)N[C@@H](CC(N)=O)C(=O)N[C@@H](Cc1c[nH]c2ccccc12)C(=O)N[C@@H](CCCCN)C(=O)N[C@@H](CCCCN)C(=O)N[C@H](C(=O)N[C@@H](C)C(=O)N[C@@H](CO)C(=O)N[C@H](C(=O)NCC(=O)N[C@@H](CCCCN)C(=O)N[C@@H](CCC(=O)O)C(=O)N[C@H](C(=O)N[C@@H](CC(C)C)C(=O)N[C@@H](CCCCN)C(=O)N[C@@H](C)C(N)=O)C(C)C)[C@@H](C)CC)[C@@H](C)CC [INWKKIASIGKEVLKA]
≥ 122	> 122			CC[C@H](C)[C@H](NC(=O)[C@@H](NC(=O)[C@H](C)NC(=O)[C@H](C)NC(=O)[C@@H](NC(=O)[C@H](CCCN=C(N)N)NC(=O)[C@H](CO)NC(=O)[C@H](CO)NC(=O)[C@@H](NC(=O)[C@@H](NC(=O)[C@H](CC(C)C)NC(=O)[C@@H](NC(=O)[C@H](Cc1ccccc1)NC(=O)[C@@H]1CCCN1C(=O)[C@H](CO)NC(=O)[C@@H](N)CCCCN)C(C)C)C(C)C)C(C)C)C(C)C)C(C)C)C(=O)N[C@@H](CCCCN)C(=O)N[C@@H](CO)C(=O)N[C@@H](CC(C)C)C(=O)N1CCC[C@H]1C(=O)O [KSPFVLVVSSRVAAVIKSLP]
≥ 126	> 126			CC[C@H](C)[C@H](NC(=O)[C@H](CO)NC(=O)[C@H](C)NC(=O)[C@H](CCCCN)NC(=O)[C@H](CC(C)C)NC(=O)[C@@H](NC(=O)[C@@H](NC(=O)[C@@H]1CCCN1C(=O)[C@@H](NC(=O)[C@@H](NC(=O)[C@@H](N)CCCCN)[C@@H](C)O)C(C)C)C(C)C)C(C)C)C(=O)N[C@@H](CCCCN)C(=O)N[C@H](C(=O)N[C@@H](CO)C(=O)N[C@@H](CO)C(=O)N[C@@H](C)C(=O)NCC(=O)N[C@@H](Cc1ccccc1)C(=O)NCC(=O)N[C@@H](Cc1ccccc1)C(=O)O)C(C)C [KTVPVVLKASIKVSSAGFGF]
≥ 123	> 123			CC(C)[C@H](NC(=O)[C@H](CO)NC(=O)[C@@H](NC(=O)[C@H](CCCCN)NC(=O)[C@H](C)NC(=O)[C@@H](NC(=O)[C@@H](NC(=O)[C@H](CCCCN)NC(=O)[C@@H](NC(=O)[C@H](Cc1ccccc1)NC(=O)[C@H](CO)NC(=O)[C@H](CS)NC(=O)[C@@H]1CCCN1C(=O)[C@H](Cc1ccc(O)cc1)NC(=O)[C@H](CO)NC(=O)CNC(=O)[C@H](CCCCN)NC(=O)CNC(=O)[C@@H](NC(=O)[C@@H](N)CCCCN)C(C)C)C(C)C)C(C)C)C(C)C)C(C)C)C(=O)O [KVGKGSYPCSFVKVVAKVSV]
≥ 122	> 122			CC(C)C[C@H](NC(=O)CNC(=O)[C@H](Cc1ccccc1)NC(=O)[C@@H](NC(=O)[C@H](CO)NC(=O)[C@@H]1CCCN1C(=O)[C@@H](NC(=O)[C@@H](NC(=O)[C@H](CCCCN)NC(=O)[C@H](CO)NC(=O)[C@H](C)NC(=O)[C@H](CC(C)C)NC(=O)[C@H](CCCCN)NC(=O)[C@H](Cc1ccccc1)NC(=O)[C@@H](NC(=O)[C@H](C)NC(=O)[C@@H]1CCCN1C(=O)[C@@H](N)CC(C)C)C(C)C)C(C)C)C(C)C)C(C)C)C(=O)N[C@H](C(=O)N[C@@H](CCCCN)C(=O)O)C(C)C [LPAVFKLASKVVPSVFGLVK]
≥ 115	57.4 (≈ 128 µg/mL)			CC(C)[C@H](N)C(=O)N[C@H](C(=O)N[C@@H](Cc1ccccc1)C(=O)N[C@@H](CCCN=C(N)N)C(=O)N[C@H](C(=O)N[C@@H](C)C(=O)N[C@@H](CO)C(=O)N[C@@H](CCCCN)C(=O)N[C@H](C(=O)N[C@@H](Cc1ccccc1)C(=O)N1CCC[C@H]1C(=O)N[C@@H](C)C(=O)N[C@H](C(=O)N[C@@H](Cc1ccc(O)cc1)C(=O)N[C@@H](CS)C(=O)N[C@H](C(=O)N[C@H](C(=O)N[C@@H](CO)C(=O)N[C@@H](CCCCN)C(=O)N[C@@H](CCCCN)C(=O)O)C(C)C)[C@@H](C)O)C(C)C)C(C)C)C(C)C)C(C)C [VVFRVASKVFPAVYCTVSKK]
